Data reported in patent US10829499B2, “Tetracyclic heterocycle compounds useful as HIV integrase inhibitors” (MERCK SHARP & DOHME CORP., priority 2016, dated 2020).
Read-outs that look alike come from different tables or passages of the source.

System: HIV-1 (NL4-3 strain)
Assay: Assay for Inhibition of HIV Replication (kinetic assay, MT4-gag-GFP reporter cell line; VIKING)
Format: cell-based
How it was run: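 MT4-gag-GFP cells infected with HIV-1 NL4-3 at low MOI for 24 h were seeded with compound (0.4% DMSO) in medium with 0%, 10% or 100% normal human serum. GFP-positive cells were counted at 24 and 48 h, and R0 was the 48 h/24 h ratio. Inhibition was scaled to DMSO and triple-drug controls, and IC50 came from 4-parameter fits.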

[1] = MT4-GFP cells infected with HIV-1 NL4-3, 0% normal human serum (NHS), read-out: VIKING IP50 (nM) with 0% NHS
[2] = MT4-GFP cells infected with HIV-1 NL4-3, 100% normal human serum (NHS), read-out: VIKING IP50 (nM) with 100% NHS
[3] = Human immunodeficiency virus 1, NL43, MT4-GFP cells infected with HIV-1 NL4-3, 0% normal human serum (NHS), read-out: VIKING IP50 (nM) with 0% NHS
[4] = Human immunodeficiency virus 1, NL43, MT4-GFP cells infected with HIV-1 NL4-3, 100% normal human serum (NHS), read-out: VIKING IP50 (nM) with 100% NHS

Row | Structure (SMILES) | IC50 [1] [nM] | IC50 [2] [nM] | IC50 [3] [nM] | IC50 [4] [nM]
1 | O=C(NCc1ccc(F)cc1)c1c2n3c(c(O)c1=O)C(=O)N1C4CCC(C4)OC1C3CC2 (stereo not drawn) [Compound 163] | 4.32 | 1660 |  | 
2 | CCNC1CC2C3OCCCN3C(=O)c3c(O)c(=O)c(C(=O)NCc4ccc(F)cc4F)c1n32 (stereo not drawn) [Compound 205] | 11.3 | 116 |  | 
3 | CCNC1CC2C3OCCCN3C(=O)c3c(O)c(=O)c(C(=O)NCc4cccc(F)c4F)c1n32 (stereo not drawn) [Compound 189] | 11 | 3870 |  | 
4 | O=C(NCc1c(F)cc(F)cc1F)c1c2n3c(c(O)c1=O)C(=O)N1C4CCC(C4)OC1C3CC2 (stereo not drawn) [Compound 168] |  | 1620 | 3.72 | 
5 | C[C@H]1COC2C3CCc4c(C(=O)NCc5ccc(F)cc5F)c(=O)c(O)c(n43)C(=O)N21 (single isomer, unassigned) [Compound 28] | 0.401 | 257 |  | 
6 | CCNC1CC2C3OCCCN3C(=O)c3c(O)c(=O)c(C(=O)NCc4c(F)cc(F)cc4F)c1n32 (stereo not drawn) [Compound 181] | 6.41 | 29.9 |  | 
7 | O=C(NCc1ccc(F)cc1F)c1c2n3c(c(O)c1=O)C(=O)N1CCCCOC1C3CC2 (single isomer, unassigned) [Compound 71] | 1.25 | 30.7 |  | 
8 | C[C@H]1CN2C(=O)c3c(O)c(=O)c(C(=O)NCc4ccc(F)cc4F)c4n3C(CC4)C2N1 (stereo partly drawn) [Compound 95] |  |  | 2.59 | 124
9 | O=C(NCc1cccc(F)c1F)c1c2n3c(c(O)c1=O)C(=O)N1C4CCC(C4)OC1C3CC2 (stereo not drawn) [Compound 165] | 6.42 | 56.1 |  | 
10 | CCNC1CC2C3OCCCN3C(=O)c3c(O)c(=O)c(C(=O)NCc4cccc(F)c4F)c1n32 (stereo not drawn) [Compound 187] | 3.51 | 49.1 |  | 
11 | CCNC1CC2C3OCCCN3C(=O)c3c(O)c(=O)c(C(=O)NCc4ccc(F)cc4F)c1n32 (stereo not drawn) [Compound 203] | 6.47 | 25.8 |  | 
12 | O=C(NCc1cccc(Cl)c1F)c1c2n3c(c(O)c1=O)C(=O)N1CCOC1C3CC2 (single isomer, unassigned) [Compound 4] | 0.439 | 93.6 |  | 
13 | CN1CCCN2C(=O)c3c(O)c(=O)c(C(=O)NCc4ccc(F)cc4F)c4n3C(CC4)C12 (single isomer, unassigned) [Compound 82] | 1.17 | 550 |  | 
14 | CCCN1C2C3CCc4c(C(=O)NCc5cccc(Cl)c5F)c(=O)c(O)c(n43)C(=O)N2C[C@@H]1C (stereo partly drawn) [Compound 108] | 1.17 | 80.1 |  | 
15 | CCNC1CC2C3OCCCN3C(=O)c3c(O)c(=O)c(C(=O)NCc4c(F)cc(F)cc4F)c1n32 (stereo not drawn) [Compound 183] | 13.3 | 3570 |  | 
16 | O=C(NCc1c(F)cccc1F)c1c2n3c(c(O)c1=O)C(=O)N1CCOC1C3CC2 (single isomer, unassigned) [Compound 16] | 6.28 |  |  | 8000
17 | O=C(NCc1ccc(F)cc1F)c1c2n3c(c(O)c1=O)C(=O)N1CCCCOC1C3CC2 (single isomer, unassigned) [Compound 70] | 1.12 | 3920 |  | 

Row | Structure (SMILES) | IC50 [1] [nM] | IC50 [2] [nM] | IC50 [3] [nM] | IC50 [4] [nM]
18 | O=C(NCc1c(F)cc(F)cc1F)c1c2n3c(c(O)c1=O)C(=O)N1CCOC1C3CC2 (single isomer, unassigned) [Compound 20] | 0.727 | 602 |  | 
19 | CCCN1C[C@H](C)N2C(=O)c3c(O)c(=O)c(C(=O)NCc4cccc(Cl)c4F)c4n3C(CC4)C12 (stereo partly drawn) [Compound 114] | 6.36 | 175 |  | 
20 | C[C@H]1CN2C(=O)c3c(O)c(=O)c(-c4nnc(Cc5ccc(F)cc5F)s4)c4n3C(CC4)C2N1 (stereo partly drawn) [Compound 130] |  | 92.8 | 3.53 | 
21 | O=C(NCc1cccc(F)c1F)c1c2n3c(c(O)c1=O)C(=O)N1C4CCC(C4)OC1C3CC2 (stereo not drawn) [Compound 167] | 3.78 | 3390 |  | 
22 | COC1CC2C3N(C)CCN3C(=O)c3c(O)c(=O)c(C(=O)NCc4ccc(F)cc4F)c1n32 (stereo not drawn) [Compound 126] | 2.42 | 211 |  | 
23 | C[C@H]1CN2C(=O)c3c(O)c(=O)c(C(=O)NCc4cccc(Cl)c4F)c4n3C(CC4)C2O1 (single isomer, unassigned) [Compound 44] | 0.879 | 378 |  | 
24 | COC1CC2C3N(C)CCN3C(=O)c3c(O)c(=O)c(C(=O)NCc4ccc(F)cc4F)c1n32 (stereo not drawn) [Compound 127] | 1.2 | 11.7 |  | 
25 | CN1CCCN2C(=O)c3c(O)c(=O)c(C(=O)NCc4ccc(F)cc4F)c4n3C(CC4)C12 (single isomer, unassigned) [Compound 83] | 0.857 | 16.8 |  | 
26 | C[C@H]1CN(C)C2C3CCc4c(C(=O)NCc5cccc(Cl)c5F)c(=O)c(O)c(n43)C(=O)N21 (stereo partly drawn) [Compound 109] |  | 480 | 1.17 | 
27 | COC1CC2C3OCCN3C(=O)c3c(O)c(=O)c(C(=O)NCc4ccc(F)cc4F)c1n32 (single isomer, unassigned) [Compound 78] | 2.12 | 534 |  | 
28 | COC1CC2C3N(C)CCN3C(=O)c3c(O)c(=O)c(C(=O)NCc4ccc(F)cc4F)c1n32 (stereo not drawn) [Compound 124] | 7.41 | 28 |  | 
29 | CCNC1CC2C3OCCCN3C(=O)c3c(O)c(=O)c(C(=O)NCc4ccc(F)cc4F)c1n32 (stereo not drawn) [Compound 204] | 15.7 | 4830 |  | 
30 | O=C(NCc1cccc(F)c1F)c1c2n3c(c(O)c1=O)C(=O)N1C4CCC(C4)OC1C3CC2 (stereo not drawn) [Compound 166] | 5.39 | 50.6 |  | 
31 | CCNC1CC2C3OCCCN3C(=O)c3c(O)c(=O)c(C(=O)NCc4cccc(Cl)c4F)c1n32 (stereo not drawn) [Compound 200] | 10.1 | 67.3 |  | 
32 | O=C(NCc1ccc(F)cc1F)c1c2n3c(c(O)c1=O)C(=O)N1CCOC1C3CC2 (single isomer, unassigned) [Compound 6] | 0.825 | 7910 |  | 
33 | O=C(NCc1cccc(Cl)c1F)c1c2n3c(c(O)c1=O)C(=O)N1CCCOC1C3CC2 (single isomer, unassigned) [Compound 50] | 0.901 | 1070 |  | 
